Converted amounts (≈) assume the structure as drawn.

One data set addresses T1, CYP1A2 (Homo sapiens, UniProt P05177).
T1 sequence (P05177 whole entry): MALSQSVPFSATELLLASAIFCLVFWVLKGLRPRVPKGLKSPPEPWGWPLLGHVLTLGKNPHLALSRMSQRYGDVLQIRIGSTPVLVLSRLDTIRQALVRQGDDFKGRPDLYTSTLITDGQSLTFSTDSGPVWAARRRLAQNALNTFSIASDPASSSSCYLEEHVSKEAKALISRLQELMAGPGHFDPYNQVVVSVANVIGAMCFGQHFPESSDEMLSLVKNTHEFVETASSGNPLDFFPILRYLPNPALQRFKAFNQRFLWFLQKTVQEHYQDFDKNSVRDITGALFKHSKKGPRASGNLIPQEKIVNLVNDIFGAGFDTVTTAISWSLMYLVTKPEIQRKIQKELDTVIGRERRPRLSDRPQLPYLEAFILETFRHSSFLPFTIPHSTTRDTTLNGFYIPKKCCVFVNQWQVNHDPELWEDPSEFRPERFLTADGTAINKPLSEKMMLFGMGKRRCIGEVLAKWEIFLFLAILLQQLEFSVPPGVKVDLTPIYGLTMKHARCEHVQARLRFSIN
The data set is described as follows: Inhibition of CYP1A2 (unknown origin) assessed as residual activity at 10 uM. Type of data set: ADME. Particulars: read-out: INH.

The next data set relates to Staphylococcus aureus. Briefly: Antibacterial activity against methicillin-resistant Staphylococcus aureus C463 by agar dilution method. It counts as functional. For orientation: Agar dilution tests growth on a series of plates holding different concentrations.
In another data set the target is CYP2D6 (Homo sapiens, UniProt P10635). Briefly: Inhibition of CYP2D6 (unknown origin) assessed as residual activity at 10 uM. It counts as ADME. To be noted: read-out: INH.
In another data set the target is T2, MAO-A (Homo sapiens, UniProt P21397).
T2 sequence (P21397 whole entry): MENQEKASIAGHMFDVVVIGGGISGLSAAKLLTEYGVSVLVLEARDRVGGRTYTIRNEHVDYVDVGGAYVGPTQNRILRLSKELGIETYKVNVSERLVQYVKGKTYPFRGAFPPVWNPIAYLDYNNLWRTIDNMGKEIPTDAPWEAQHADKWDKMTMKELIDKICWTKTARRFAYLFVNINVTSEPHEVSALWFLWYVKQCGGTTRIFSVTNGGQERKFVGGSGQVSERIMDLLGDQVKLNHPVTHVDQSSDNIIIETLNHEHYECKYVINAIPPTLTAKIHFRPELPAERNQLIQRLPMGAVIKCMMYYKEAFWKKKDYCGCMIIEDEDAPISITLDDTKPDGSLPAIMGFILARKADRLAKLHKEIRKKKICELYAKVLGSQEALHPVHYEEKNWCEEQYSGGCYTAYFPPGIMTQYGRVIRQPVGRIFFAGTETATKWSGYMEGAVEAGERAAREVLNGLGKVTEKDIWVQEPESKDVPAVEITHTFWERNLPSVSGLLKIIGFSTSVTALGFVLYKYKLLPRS
The data set is described as follows: Inhibition of human MAO-A assessed as residual activity at 10 uM. To be noted: read-out: INH.

The test system of the next data set is Enterococcus faecium. Briefly: Antibacterial activity against vancomycin-resistant Enterococcus faecium C803 by agar dilution method. It counts as functional.
In the next data set the test system is Haemophilus influenzae. The data set is described as follows: Antibacterial activity against betalactamase positive Haemophilus influenzae by agar dilution method. Type of data set: functional.
Another data set has as its target CYP2C9 (Homo sapiens, UniProt P11712). Briefly: Inhibition of CYP2C9 (unknown origin) assessed as residual activity at 10 uM. It counts as ADME. Particulars: read-out: INH.
A further data set relates to Enterococcus faecalis. Briefly: Antibacterial activity against vancomycin-resistant Enterococcus faecalis C474 by agar dilution method. Type of data set: functional.
The next data set concerns the target CYP3A4 (Homo sapiens, UniProt P08684). Briefly: Inhibition of CYP3A4 (unknown origin) assessed as residual activity at 10 uM. It counts as ADME. Particulars: read-out: INH.
A further data set concerns Streptococcus pyogenes. The data set is described as follows: Antibacterial activity against Streptococcus pyogenes 308A by agar dilution method. It counts as functional.
Another data set has as its system Staphylococcus. The data set is described as follows: Antibacterial activity against methicillin-resistant coagulase negative Staphylococcus by agar dilution method. It counts as functional.
Data set [1] addresses Voltage-gated inwardly rectifying potassium channel KCNH2 (Homo sapiens, UniProt Q12809). The data set is described as follows: Inhibition of human hERG by automated patch clamp assay. (In general: The hERG channel carries a current that helps repolarise heart muscle cells.)
For a further data set, the system named is Streptococcus pneumoniae. The data set is described as follows: Antibacterial activity against penicillin-resistant Streptococcus pneumoniae C402 by agar dilution method. Type of data set: functional.
The target in a further data set is T3, MAO-B (Homo sapiens, UniProt P27338).
T3 sequence (P27338 whole entry): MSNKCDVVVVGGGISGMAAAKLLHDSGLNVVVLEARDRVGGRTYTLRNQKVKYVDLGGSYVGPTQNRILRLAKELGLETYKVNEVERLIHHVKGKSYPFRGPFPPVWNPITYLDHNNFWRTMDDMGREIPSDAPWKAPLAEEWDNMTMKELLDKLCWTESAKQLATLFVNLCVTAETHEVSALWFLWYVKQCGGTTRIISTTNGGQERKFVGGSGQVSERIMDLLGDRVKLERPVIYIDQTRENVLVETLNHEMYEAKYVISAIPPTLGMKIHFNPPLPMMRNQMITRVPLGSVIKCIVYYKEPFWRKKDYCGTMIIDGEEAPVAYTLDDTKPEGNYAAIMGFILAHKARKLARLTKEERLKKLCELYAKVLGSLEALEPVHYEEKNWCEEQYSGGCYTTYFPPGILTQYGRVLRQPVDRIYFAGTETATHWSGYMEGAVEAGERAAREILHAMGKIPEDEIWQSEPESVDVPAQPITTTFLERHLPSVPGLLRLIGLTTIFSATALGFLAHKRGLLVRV
The data set is described as follows: Inhibition of human MAO-B assessed as residual activity at 10 uM. Particulars: read-out: INH.

In a further data set the test system is Streptococcus agalactiae. Briefly: Antibacterial activity against Streptococcus agalactiae ATCC 2901 by agar dilution method. It counts as functional.

Sequence of CYP2C9 (P11712 whole entry): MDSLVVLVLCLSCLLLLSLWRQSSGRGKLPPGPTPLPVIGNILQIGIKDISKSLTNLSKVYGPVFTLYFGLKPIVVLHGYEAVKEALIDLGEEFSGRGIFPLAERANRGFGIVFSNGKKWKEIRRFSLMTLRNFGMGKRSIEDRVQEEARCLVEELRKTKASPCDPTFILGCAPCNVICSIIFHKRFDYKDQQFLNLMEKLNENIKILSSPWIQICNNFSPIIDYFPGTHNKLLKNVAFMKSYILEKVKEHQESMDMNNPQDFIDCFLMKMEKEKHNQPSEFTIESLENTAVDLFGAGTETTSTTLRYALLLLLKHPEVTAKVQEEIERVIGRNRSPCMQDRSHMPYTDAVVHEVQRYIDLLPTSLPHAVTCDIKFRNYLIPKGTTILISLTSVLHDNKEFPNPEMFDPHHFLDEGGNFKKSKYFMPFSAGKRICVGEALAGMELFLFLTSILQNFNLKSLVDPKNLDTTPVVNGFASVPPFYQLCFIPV
Sequence of Voltage-gated inwardly rectifying potassium channel KCNH2 (Q12809 whole entry): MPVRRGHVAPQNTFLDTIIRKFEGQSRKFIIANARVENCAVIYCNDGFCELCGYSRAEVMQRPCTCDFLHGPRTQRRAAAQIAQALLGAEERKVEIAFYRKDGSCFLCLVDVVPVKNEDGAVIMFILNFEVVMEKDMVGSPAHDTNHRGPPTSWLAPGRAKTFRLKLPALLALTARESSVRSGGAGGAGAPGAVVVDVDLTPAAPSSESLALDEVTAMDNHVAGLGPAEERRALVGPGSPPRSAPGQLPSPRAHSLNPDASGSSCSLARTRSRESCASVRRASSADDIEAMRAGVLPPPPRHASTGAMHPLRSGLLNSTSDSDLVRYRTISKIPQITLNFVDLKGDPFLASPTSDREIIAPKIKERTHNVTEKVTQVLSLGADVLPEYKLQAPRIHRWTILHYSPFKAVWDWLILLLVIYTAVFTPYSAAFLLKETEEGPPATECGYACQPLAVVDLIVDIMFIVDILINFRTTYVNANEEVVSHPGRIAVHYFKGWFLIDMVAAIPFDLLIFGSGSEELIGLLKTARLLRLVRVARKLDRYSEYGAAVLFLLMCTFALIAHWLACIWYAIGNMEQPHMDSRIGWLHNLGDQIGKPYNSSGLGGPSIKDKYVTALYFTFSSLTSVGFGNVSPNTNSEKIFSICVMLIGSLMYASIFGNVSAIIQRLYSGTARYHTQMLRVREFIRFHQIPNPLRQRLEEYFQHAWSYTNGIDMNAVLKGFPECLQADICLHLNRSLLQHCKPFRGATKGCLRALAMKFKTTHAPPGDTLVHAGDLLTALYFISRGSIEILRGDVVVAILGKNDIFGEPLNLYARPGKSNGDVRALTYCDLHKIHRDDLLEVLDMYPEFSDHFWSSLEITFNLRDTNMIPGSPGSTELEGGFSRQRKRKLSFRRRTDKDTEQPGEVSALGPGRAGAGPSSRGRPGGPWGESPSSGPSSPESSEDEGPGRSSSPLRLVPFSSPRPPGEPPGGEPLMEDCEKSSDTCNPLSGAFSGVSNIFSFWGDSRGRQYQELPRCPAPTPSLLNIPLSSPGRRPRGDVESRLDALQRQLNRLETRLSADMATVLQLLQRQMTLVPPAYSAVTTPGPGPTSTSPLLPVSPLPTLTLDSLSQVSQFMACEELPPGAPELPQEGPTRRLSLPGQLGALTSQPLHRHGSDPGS
Sequence of CYP3A4 (P08684 whole entry): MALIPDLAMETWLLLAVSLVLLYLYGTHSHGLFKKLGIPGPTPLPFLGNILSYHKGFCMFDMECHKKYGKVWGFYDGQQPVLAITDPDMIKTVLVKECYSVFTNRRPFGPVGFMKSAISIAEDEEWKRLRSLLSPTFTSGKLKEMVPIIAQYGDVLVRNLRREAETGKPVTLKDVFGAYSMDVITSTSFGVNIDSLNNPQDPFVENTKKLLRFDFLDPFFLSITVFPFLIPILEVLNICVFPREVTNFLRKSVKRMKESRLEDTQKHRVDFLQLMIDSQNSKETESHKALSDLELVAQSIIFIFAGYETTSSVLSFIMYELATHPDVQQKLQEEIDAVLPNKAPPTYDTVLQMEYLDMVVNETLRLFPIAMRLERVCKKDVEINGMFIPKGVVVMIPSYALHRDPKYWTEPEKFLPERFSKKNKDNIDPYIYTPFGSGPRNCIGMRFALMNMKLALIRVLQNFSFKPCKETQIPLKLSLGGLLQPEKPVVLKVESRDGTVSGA
Sequence of CYP2D6 (P10635 whole entry): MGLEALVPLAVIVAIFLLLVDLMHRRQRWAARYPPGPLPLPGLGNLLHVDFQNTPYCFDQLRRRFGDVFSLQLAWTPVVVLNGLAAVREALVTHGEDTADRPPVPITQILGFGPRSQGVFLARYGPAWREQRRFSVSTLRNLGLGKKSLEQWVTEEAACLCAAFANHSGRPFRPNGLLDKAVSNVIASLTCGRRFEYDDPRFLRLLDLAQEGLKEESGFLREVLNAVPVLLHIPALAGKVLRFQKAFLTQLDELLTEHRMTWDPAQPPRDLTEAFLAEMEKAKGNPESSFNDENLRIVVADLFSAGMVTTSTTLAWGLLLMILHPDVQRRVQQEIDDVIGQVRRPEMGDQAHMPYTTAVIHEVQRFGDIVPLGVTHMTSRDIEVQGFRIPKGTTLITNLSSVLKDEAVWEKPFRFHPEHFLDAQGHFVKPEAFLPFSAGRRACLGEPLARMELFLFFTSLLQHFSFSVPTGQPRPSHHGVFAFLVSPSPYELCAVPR

In the case of `N#CC=C1CCN(c2ccc(N3C[C@H](Cn4ccnn4)OC3=O)cc2F)CC1`, the activity at 10 µM at CYP1A2 turned out to be 55.2%; at CYP2D6 it was 80.9%; at MAO-A, 3.54%; on CYP2C9, 88%; at CYP3A4, 32%; at MAO-B, 111%. Besides, the MIC against Staphylococcus aureus is 3.12 µg/mL (≈ 8.16 µM); in the data set on Enterococcus faecium it was 1.56 µg/mL (≈ 4.08 µM); against Haemophilus influenzae, 0.78 µg/mL (≈ 2.04 µM); in the data set on Enterococcus faecalis, 3.12 µg/mL (≈ 8.16 µM); with Streptococcus pyogenes, 0.39 µg/mL (≈ 1.02 µM); in the data set on Staphylococcus, 3.12 µg/mL (≈ 8.16 µM). The MIC in the data set with Streptococcus pneumoniae amounted to 0.39 µg/mL (≈ 1.02 µM); against Streptococcus agalactiae it was 0.78 µg/mL (≈ 2.04 µM). For the same molecule, the half-maximal inhibitory concentration (IC50) (commonly the concentration that gives 50% inhibition) in data set [1] amounted to 49.5 µM.

In the case of `N#CC=C1CCN(c2ccc(N3C[C@H](Cn4cc(F)nn4)OC3=O)cc2F)CC1`, the activity at 10 µM on CYP1A2 turned out to be 91.8%; at CYP2D6, 117%; on MAO-A, 50.6%; on CYP2C9, 66.6%; on CYP3A4 it was 23.6%; on MAO-B, 19.5%. Besides, the MIC in the data set on Staphylococcus aureus was found to be 50 µg/mL (≈ 125 µM); against Enterococcus faecium, 50 µg/mL (≈ 125 µM); against Haemophilus influenzae it was 6.25 µg/mL (≈ 15.6 µM); against Enterococcus faecalis, 50 µg/mL (≈ 125 µM); against Streptococcus pyogenes, 50 µg/mL (≈ 125 µM); against Staphylococcus, 100 µg/mL (≈ 250 µM). Moreover, the MIC in the data set with Streptococcus pneumoniae came out at 6.25 µg/mL (≈ 15.6 µM); in the data set on Streptococcus agalactiae, 100 µg/mL (≈ 250 µM).

In the case of `CC(C#N)=C1CCN(c2ccc(N3C[C@H](Cn4ccnn4)OC3=O)cc2F)CC1`, the activity at 10 µM came to 45.7% on CYP1A2; 65.1% at CYP2D6; 34.8% on MAO-A; 61.5% on CYP2C9; 7.45% at CYP3A4; 74.8% at MAO-B. The MIC was determined as 1.56 µg/mL (≈ 3.94 µM) against Staphylococcus aureus; 1.56 µg/mL (≈ 3.94 µM) in the data set on Enterococcus faecium; 0.39 µg/mL (≈ 0.984 µM) in the data set on Haemophilus influenzae; 1.56 µg/mL (≈ 3.94 µM) in the data set with Enterococcus faecalis; 0.39 µg/mL (≈ 0.984 µM) against Streptococcus pyogenes; 1.56 µg/mL (≈ 3.94 µM) against Staphylococcus. Also, the MIC against Streptococcus pneumoniae and in the data set on Streptococcus agalactiae was 0.19 µg/mL (≈ 0.479 µM) each time. For the same molecule, the 50% inhibitory concentration (IC50) in data set [1] is 213 µM.

Turning to `CC(C#N)=C1CCN(c2ccc(N3C[C@H](Cn4cc(F)nn4)OC3=O)cc2F)CC1`, the activity at 10 µM came out at 92.8% at CYP1A2; 106% on CYP2D6; 10.2% at MAO-A; 64.8% on CYP2C9; 21.4% on CYP3A4; 34.8% at MAO-B. For the same molecule, the MIC came out at 100 µg/mL (≈ 241 µM) in the data set on Staphylococcus aureus; 100 µg/mL (≈ 241 µM) in the data set with Enterococcus faecium; 6.25 µg/mL (≈ 15.1 µM) in the data set with Haemophilus influenzae; 100 µg/mL (≈ 241 µM) against Enterococcus faecalis; 6.25 µg/mL (≈ 15.1 µM) with Streptococcus pyogenes; 100 µg/mL (≈ 241 µM) in the data set with Staphylococcus. Moreover, the MIC against Streptococcus pneumoniae came to 6.25 µg/mL (≈ 15.1 µM); in the data set with Streptococcus agalactiae, 12.5 µg/mL (≈ 30.2 µM). In data set [1], this molecule registered an IC50 of 21 µM.

`CC(=O)NC[C@H]1CN(c2ccc(N3CCOCC3)c(F)c2)C(=O)O1` [LINEZOLID]: the MIC in the data set on Staphylococcus aureus turned out to be 3.12 µg/mL (≈ 9.25 µM); against Enterococcus faecium it was 1.56 µg/mL (≈ 4.62 µM); in the data set with Haemophilus influenzae it was 0.78 µg/mL (≈ 2.31 µM); against Enterococcus faecalis, 3.12 µg/mL (≈ 9.25 µM); in the data set on Streptococcus pyogenes it was 0.78 µg/mL (≈ 2.31 µM); in the data set on Staphylococcus it was 3.12 µg/mL (≈ 9.25 µM). The MIC was determined as 0.78 µg/mL (≈ 2.31 µM) in the data set on Streptococcus pneumoniae and 1.56 µg/mL (≈ 4.62 µM) in the data set on Streptococcus agalactiae. For the same molecule, the activity at 10 µM on MAO-A is 6.79%; at MAO-B it was 31.4%.

For the origin of these results see ChEMBL document CHEMBL2321764, “Synthesis and antibacterial activities of new piperidine substituted (5R)-[1,2,3]triazolylmethyl and (5R)-[(4-F-[1,2,3]triazolyl)methyl] oxazolidinones” (Bioorg Med Chem Lett, 2013).
